According to ChEMBL document CHEMBL5365469, “Design, synthesis and antitumor effects of novel benzimidazole derivatives as PI3K inhibitors” (Bioorg Med Chem Lett, 2023):

Experiments:
SiHa = test: Antiproliferative activity against human SiHa cells assessed as inhibition of cell growth by MTT assay; assay type: functional, cell-based
HCT-116 = test: Antiproliferative activity against human HCT-116 cells assessed as inhibition of cell growth by MTT assay; assay type: functional, cell-based
MCF7 = test: Antiproliferative activity against human MCF7 cells assessed as inhibition of cell growth by MTT assay; assay type: functional, cell-based
A549 [1] = test: Antiproliferative activity against human A549 cells assessed as inhibition of cell growth by MTT assay; assay type: functional, cell-based
HepG2 = test: Antiproliferative activity against human HepG2 cells assessed as inhibition of cell growth by MTT assay; assay type: functional, cell-based
PC-3 = test: Antiproliferative activity against human PC-3 cells assessed as inhibition of cell growth by MTT assay; assay type: functional, cell-based
A549 [2] = test: Induction of cell cycle arrest in human A549 cells assessed as accumulation of cells at G2/M phase at 3 uM by FACS analysis ( Rvb = 9.35%); assay type: functional
A549 [3] = test: Induction of cell cycle arrest in human A549 cells assessed as accumulation of cells at G0/G1 phase at 3 uM by FACS analysis ( Rvb = 49.93%); assay type: functional
A549 [4] = test: Induction of cell cycle arrest in human A549 cells assessed as accumulation of cells at S phase at 3 uM by FACS analysis ( Rvb = 40.71%); assay type: functional
A549 [5] = test: Inhibition of PI3K signalling pathway in human […] cells assessed as decrease in phosphorylated PI3K level by Western blot assay; assay type: cell-based; conditions: dose 1.5-6 µM
A549 [6] = test: Induction of cell cycle arrest in human A549 cells assessed as accumulation of cells at G0/G1 phase at 1.5 uM by FACS analysis ( Rvb = 49.93%); assay type: functional
A549 [7] = test: Induction of cell cycle arrest in human A549 cells assessed as accumulation of cells at G2/M phase at 6 uM by FACS analysis ( Rvb = 9.35%); assay type: functional
A549 [8] = test: Induction of cell cycle arrest in human A549 cells assessed as accumulation of cells at S phase at 1.5 uM by FACS analysis ( Rvb = 40.71%); assay type: functional
A549 [9] = test: Induction of cell cycle arrest in human A549 cells assessed as accumulation of cells at S phase at 6 uM by FACS analysis ( Rvb = 40.71%); assay type: functional
A549 [10] = test: Induction of apoptosis in human A549 cells assessed as increase in apoptotic cells at 6 uM incubated for 48 hrs by Annexin V-FITC/PI staining analysis relative to control; assay type: functional
[11] = Cytotoxicity against human L02 cells assessed as inhibition of cell growth by MTT assay; assay type: toxicity, cell-based
A549 [12] = test: Induction of apoptosis in human A549 cells assessed as increase in apoptotic cells at 3 uM incubated for 48 hrs by Annexin V-FITC/PI staining analysis relative to control; assay type: functional
A549 [13] = test: Induction of cell cycle arrest in human A549 cells assessed as accumulation of cells at G0/G1 phase at 6 uM by FACS analysis ( Rvb = 49.93%); assay type: functional
A549 [14] = test: Inhibition of PI3K signalling pathway in human […] cells assessed as decrease in phosphorylated AKT level by Western blot assay; assay type: cell-based; conditions: dose 1.5-6 µM
A549 [15] = test: Induction of cell cycle arrest in human A549 cells assessed as accumulation of cells at G2/M phase at 1.5 uM by FACS analysis ( Rvb = 9.35%); assay type: functional
A549 [16] = test: Induction of apoptosis in human A549 cells assessed as increase in apoptotic cells at 1.5 uM incubated for 48 hrs by Annexin V-FITC/PI staining analysis relative to control; assay type: functional

Structure (SMILES) | IC50 (SiHa) [µM] | IC50 (HCT-116) [µM] | IC50 (MCF7) [µM] | IC50 (A549 [1]) [µM] | IC50 (HepG2) [µM] | IC50 (PC-3) [µM] | other results
CCOC(=O)/C=C/c1cc2[nH]c(-c3cc(OC)c(OC)cc3OC)nc2cc1OC | 9.8 | 6.94 | 22 | 14.8 | 13.7 | 4.01 | –
COc1cc2nc(-c3cc(OC)c(OC)cc3OC)[nH]c2cc1/C=C(\C)C(N)=O | 33.5 | 32.9 | 57.3 | 73.4 | 61 | 22.1 | –
COc1cc2nc(-c3ccc(OC)c(OC)c3OC)[nH]c2cc1C#Cc1ccccc1Cl | > 100 | 81.4 | > 100 | > 100 | 96.8 | 22.7 | –
Nc1cc(C(F)(F)F)c(-c2cc(N3CCOCC3)nc(N3CCOCC3)n2)cn1 [BUPARLISIB] | 7.18 | 3.73 | 16.4 | 9.75 | 23.6 | 12.1 | Activity (A549 [2]): 36.68%; Activity (A549 [3]): 35.32%; Activity (A549 [4]): 27.99%
COc1cc2nc(-c3ccc(OC)c(OC)c3OC)[nH]c2cc1C#Cc1ccc(C(F)(F)F)cc1 | 86.6 | 15 | > 100 | 46.1 | 56.8 | 41.1 | –
COc1cc2nc(-c3cc(OC)c(OC)cc3OC)[nH]c2cc1C#Cc1ccccc1Cl | 90.8 | > 100 | 27 | > 100 | 23.3 | 57.3 | –
COc1cc2nc(-c3ccc(OC)c(OC)c3OC)[nH]c2cc1C#Cc1ccccc1F | > 100 | 39.3 | > 100 | > 100 | 35.6 | 26.9 | –
COc1cc2nc(-c3cc(OC)c(OC)cc3OC)[nH]c2cc1/C=C/C(=O)N1CCOCC1 | 6.57 | 12 | 15.5 | > 100 | 87.4 | 8.45 | –
COc1cc2nc(-c3ccc(OC)c(OC)c3OC)[nH]c2cc1/C=C/C(N)=O | > 100 | > 100 | > 100 | > 100 | > 100 | > 100 | –
COc1cc2nc(-c3cc(OC)c(OC)cc3OC)[nH]c2cc1/C=C/C(=O)NC(C)(C)C | 3.48 | 3.11 | 21.7 | 8.36 | 13 | 3.74 | –
CCOC(=O)/C=C/c1cc2[nH]c(-c3ccc(OC)c(OC)c3OC)nc2cc1OC | 80.6 | 75.1 | > 100 | > 100 | > 100 | 84.9 | –
COc1cc2nc(-c3ccc(OC)c(OC)c3OC)[nH]c2cc1/C=C/C(=O)N1CCOCC1 | 76 | 67.8 | > 100 | > 100 | > 100 | 37.6 | –
COc1cc2nc(-c3ccc(OC)c(OC)c3OC)[nH]c2cc1/C=C/C(=O)NCCO | 22.6 | 53.9 | > 100 | > 100 | > 100 | 65.4 | –
COc1cc2nc(-c3ccc(OC)c(OC)c3OC)[nH]c2cc1/C=C/C(=O)NC(C)C | 72.3 | 38.4 | > 100 | 85.4 | 36.8 | 46 | –
COc1cc2nc(-c3cc(OC)c(OC)cc3OC)[nH]c2cc1C#Cc1ccccc1F | 9.36 | 1.68 | 2.01 | 1.55 | 88.7 | 25.5 | inhibition (A549 [5]): Dose-Dependent Effect; Activity (A549 [6]): 54.14%; Activity (A549 [2]): 7.83%; Activity (A549 [7]): 6.64%; Activity (A549 [8]): 37.71%; Activity (A549 [3]): 54.95%; Activity (A549 [9]): 32.41%; Activity (A549 [4]): 37.22%; Activity (A549 [10]): 63.1%; IC50 [11]: 41.5 µM; Activity (A549 [12]): 61.73%; Activity (A549 [13]): 60.61%; inhibition (A549 [14]): Dose-Dependent Effect; Activity (A549 [15]): 8.15%; Activity (A549 [16]): 28.97%
COc1cc2nc(-c3cc(OC)c(OC)cc3OC)[nH]c2cc1/C=C/C(=O)NCCO | > 100 | > 100 | > 100 | > 100 | > 100 | > 100 | –
COc1ccc(C#Cc2cc3[nH]c(-c4ccc(OC)c(OC)c4OC)nc3cc2OC)cc1 | > 100 | > 100 | > 100 | > 100 | 94.8 | > 100 | –
COc1cc2nc(-c3ccc(OC)c(OC)c3OC)[nH]c2cc1/C=C(\C)C(N)=O | > 100 | > 100 | > 100 | > 100 | > 100 | 90.8 | –
COc1cc2nc(-c3ccc(OC)c(OC)c3OC)[nH]c2cc1C#Cc1ccc(Cl)cc1 | > 100 | 10.4 | > 100 | > 100 | 66.2 | 20.4 | –
COc1cc2nc(-c3cc(OC)c(OC)cc3OC)[nH]c2cc1C#Cc1ccc(C(F)(F)F)cc1 | 24.4 | 4.47 | 66.7 | 33.1 | 44.6 | 19.5 | –
COc1cc2nc(-c3ccc(OC)c(OC)c3OC)[nH]c2cc1/C=C/C(=O)NC(C)(C)C | 38 | 15.3 | > 100 | > 100 | > 100 | 19.6 | –
COc1cc2nc(-c3cc(OC)c(OC)cc3OC)[nH]c2cc1/C=C/C(N)=O | 5.27 | 29 | 77.8 | 93.3 | > 100 | 22.6 | –
COc1ccc(C#Cc2cc3[nH]c(-c4cc(OC)c(OC)cc4OC)nc3cc2OC)cc1 | 33.4 | 3.02 | 7.14 | 9.7 | 88.7 | 20.2 | –
COc1cc2nc(-c3cc(OC)c(OC)cc3OC)[nH]c2cc1/C=C/C(=O)NC(C)C | > 100 | 37.4 | > 100 | > 100 | 55.6 | 92.6 | –
COc1cc2nc(-c3cc(OC)c(OC)cc3OC)[nH]c2cc1C#Cc1ccc(Cl)cc1 | > 100 | 3.05 | 6.65 | > 100 | 19.4 | 10.5 | –
